Results on 13 molecules are retold here after patent publication US10100331B2, “Reagent for gene-drug therapeutics” (Agency for Science, Technology and Research, priority 2012, dated 2018).

One data set addresses T1, HDAC6 (Homo sapiens, UniProt Q9UBN7).
T1 sequence (Q9UBN7 1-1215): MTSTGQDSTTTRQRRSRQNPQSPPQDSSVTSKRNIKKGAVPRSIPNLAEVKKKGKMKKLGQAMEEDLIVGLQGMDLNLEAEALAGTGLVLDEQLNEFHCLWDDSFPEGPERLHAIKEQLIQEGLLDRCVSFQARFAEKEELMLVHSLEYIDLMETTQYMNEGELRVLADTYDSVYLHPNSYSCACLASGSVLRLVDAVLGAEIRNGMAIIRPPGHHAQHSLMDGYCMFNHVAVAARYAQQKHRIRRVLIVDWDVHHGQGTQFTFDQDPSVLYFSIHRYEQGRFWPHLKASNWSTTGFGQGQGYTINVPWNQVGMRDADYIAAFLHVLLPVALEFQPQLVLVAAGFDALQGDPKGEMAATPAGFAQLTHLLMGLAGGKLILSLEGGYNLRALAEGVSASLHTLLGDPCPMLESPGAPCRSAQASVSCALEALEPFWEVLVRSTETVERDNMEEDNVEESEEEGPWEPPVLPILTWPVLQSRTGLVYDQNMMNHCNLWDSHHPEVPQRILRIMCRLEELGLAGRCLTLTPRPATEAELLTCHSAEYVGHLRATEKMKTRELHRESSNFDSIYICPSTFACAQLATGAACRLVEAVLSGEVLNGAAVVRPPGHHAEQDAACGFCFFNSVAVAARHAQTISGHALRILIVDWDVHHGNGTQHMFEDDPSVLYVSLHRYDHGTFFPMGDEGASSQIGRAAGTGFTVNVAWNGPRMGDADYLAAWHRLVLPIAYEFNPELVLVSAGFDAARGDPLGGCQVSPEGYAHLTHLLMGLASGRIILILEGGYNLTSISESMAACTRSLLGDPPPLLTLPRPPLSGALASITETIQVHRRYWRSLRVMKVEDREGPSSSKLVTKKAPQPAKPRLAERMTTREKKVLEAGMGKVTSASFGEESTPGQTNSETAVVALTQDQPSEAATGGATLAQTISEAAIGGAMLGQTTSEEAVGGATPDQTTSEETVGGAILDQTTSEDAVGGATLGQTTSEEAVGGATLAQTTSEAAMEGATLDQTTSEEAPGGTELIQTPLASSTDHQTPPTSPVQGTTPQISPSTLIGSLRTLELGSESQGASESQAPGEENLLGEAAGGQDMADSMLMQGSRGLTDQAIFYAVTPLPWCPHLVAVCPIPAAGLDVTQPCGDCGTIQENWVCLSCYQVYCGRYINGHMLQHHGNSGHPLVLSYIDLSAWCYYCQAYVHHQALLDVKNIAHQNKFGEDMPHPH
The settings on record: Targeted HDAC/Sirtuin: 6; cited from earlier work.

In a further data set the test system is Neuro2A cells. The class given is cell-based. The settings on record: for uptake of polyplex: inhibitor 45 min prior transfection, LPEI/pDNA N/P=20, 4 h; for cell death at the concentrations used: Dynasore 30 μg/ml, Filipin III 5 μg/ml, Rottlerin […]. The procedure:
A. Native and differentiated (10 μM RA) Neuro2a was treated with 2.5 μg/ml rottlerin, 5 μg/ml Filipin III or 30 μg/ml Dynasore for 45 min prior transfection. DMSO/0.5% FBS was used as control for treatment. After transfection with polyplex (N/P=20), cells were incubated at 4° C. or 37° C. for 4 h. Extracellular pDNA was removed by pAA/DNAse and cells were trypsinized. Then, samples were treated with pAA/urea lysis buffer and the absolute copy number of pDNA was quantified by qPCR. In similar experiments, native Neuro2A cells were incubated at 37° C. for 24 h post transfection. B. Representative fluorescent images (bottom rows), acquired 48 h post transfection. C. Percentage of cells expressing EGFP was counted. Significant differences in transfection efficiencies were calculated using the two tailed student's t-test. The data shown were the mean±s.e.m., n=4. *, p<0.05; **, p<0.005.
For studies using inhibitors, cells were incubated with Dynasore (30 μg/ml), Filipin III (5 μg/ml) or Rottlerin (2.5 μg/ml) in DMEM (0.5% FBS) for 45 min prior transfection. Cells were further incubated in DMEM (0.5% FBS) containing corresponding inhibitors post transfection.
To quantify DNA internalized by the cells, the supernatant was removed and the cells were washed once with 1×PBS and incubated in DMEM containing pAA/DNAse for 2 h at 4° C. Next, the cells were trypsinized and treated with pAA/urea lysis buffer. Efficiency of DNA release by pAA/urea lysis buffer and pAA/DNase was evaluated (Supplementary FIGS. 15 & 18). […] Primers specific for EGFP, forward primer (5′-3′, […]; SEQ ID NO:1) and reverse primer (5′-3′, […]; SEQ ID NO:2) were used. PCR quantification of the pDNA was performed as previously described (Yoong, L.F., G. Wan, and H.P. Too. Mol Cell Neurosci, 2009. 41(4): p. 464-73). The absolute amount of pDNA was determined using plasmid standards by interpolation.

A further data set concerns acetylated α-tubulin. The experiment in a line: Tubulin acetylation immunostaining. The class given is cell-based. The note with it: for tubulin acetylation: differentiated Neuro2A, 2 h, Tubastatin A 10 μM, TSA 50 nM, Paclitaxel 25 nM, SAHA 5 μM, Entinostat 10 μM, Tacedinaline 50 μM. The procedure: Then, cells were fixed with 4% formaldehyde and co-stained for acetylated α-tubulin and β-tubulin. Confocal images of the individual and merged channels are shown. Bar represents 20 μm. Further, a table is presented, showing the reagents and their respective targets, as well as the concentration at which the experiment was done.
FIG. 35 depicts micrographs showing the transient effect of Tubastatin A on tubulin acetylation. Neuro2a cells were treated with Tubastatin A (10 μM) for 12 hours. Then, chemicals were removed by replacement with complete media and cells were further incubated for 48 h. At various time points, cells were fixed with 4% formaldehyde and stained for acetylated α-tubulin (Green) and nucleus (Hoechst stain, Blue). Representative images were shown. Bar represents 20 μm.
Control and 10 μM differentiated Neuro2a Cells were fixed with 4% formaldehyde in 1×PBS for 20 min at room temperature and subsequently permeabilized in 0.5% Triton-X100 in 1×PBS. Then, the samples fixed cells were blocked with normal goat serum (1:10; Dako, Glostrup, Denmark) in 0.1% Triton X-100/1×PBS for 30 min at 37° C. The cells were then incubated with primary antibodies against acetylated α-Tubulin (Sigma Aldrich T7451, 1:200 dilution) or TuJ (R&D Systems MAB1195, 1:50 dilution) in 0.1% TritonX-100/1% BSA/1×PBS at 37° C. for 2 h and washed three times in 1×PBS. […] The cells were washed three times in 1×PBS and mounted. Image acquisition was performed using the Zeiss LSM710 with Axio Observer.Z1 confocal microscope system (Oberkochen, Germany). All images were taken with identical laser and optical settings.

The target in the next data set is HDAC1 (Homo sapiens, UniProt Q13547). The note with it: Targeted HDAC/Sirtuin: 1; cited from earlier work.
Data set [1] has as its system U251MG cells. Description: Viable cell number after p53 transfection with transfection enhancers. The settings on record: for cell death / cell number with p53 transfection: pEGFP-N1-p53, 10 μM Tubastatin A, 5 μM SAHA. The class given is cell-based.
For a further data set, the system named is MICA and NKG2D. The experiment in a line: MICA and NKG2D expression in PC3 cells (PCR). It counts as cell-based, human. The settings on record: 5 μM SAHA, up to 48 hours. The procedure:
At the end of the incubation, the cells were collected and subjected to PCR analysis. […] The histogram here represented fold change to control after normalization with GAPDH.

The subject of data set [2] is human fetal MSC cells. The experiment in a line: GFP transfection of human fetal MSC. The class given is cell-based. The note with it: PEIMAX/PMAXGFP N/P=10; 100 nM Trichostatin A. The procedure: Next, cells were harvested and GFP expressions were analysed by FACS analysis. Graph represents % of GFP+ cells. Error bar represents the standard error mean (S.E.M.) of n=3. Statistical significance of transfection efficiencies between cells exposed to polyplexes only and other conditions were obtained using two tailed student's t-test; *, p<0.01. Representative images of the transfected cells of each condition are presented.
Human fetal MSC cells were transfected with PEIMAX/PMAXGFP complex at N/P=10. […] Three days after transfection, media was replaced with fresh culture media. Bright field and fluorescent images were taken at Day 2, 7, 14 and 21 days post transfection. Representative imaged are presented.

In a further data set the test system is PC3 cells. The experiment in a line: GFP transfection of PC3 cells (FACS). The class given is cell-based, human. The settings on record: PEIMAX/PMAXGFP N/P=20. The procedure: Next, cells were harvested and GFP expression was analysed by FACS analysis. […] Representative images of the FACS analysis and transfected cells of each condition are presented. Error bar represents the standard error mean (S.E.M.) of n=3.

For data set [3], the system named is U251MG cells. Description: GFP transfection of U251MG cells (FACS). It counts as cell-based. The settings on record: PEIMAX/PMAXGFP N/P=10; 10 μM Tubastatin A, 5 μM SAHA. On the procedure: Furthermore, representative images of the FACS analysis and transfected cells for each conditions are presented. Error bar represents the standard error mean (S.E.M.) of n=3. […] Next, cells were harvested and GFP expressions were analysed by FACS analysis.

Data set [4] concerns human fetal MSC cells. Description: BMP2 expression in human MSC (qPCR). The class given is cell-based. The note with it: PEIMAX/PMAXGFP-BMP2 N/P=10; 3 day post transfection; 5 μM Tubastatin A, 150 nM TSA. In general terms: In qPCR the cycle at which signal appears reflects the starting amount.
Data set [5] deals with differentiated Neuro2A cells. The experiment in a line: Transfection efficiency (EGFP positive cells) of differentiated Neuro2A. The class given is cell-based. The settings on record: LPEI/pDNA N/P=20; chloroquine 25 or 100 μM, PLUS 10 or 20 μL, INF7 10 or 20 μg; 48 h.
The next data set addresses HDAC3 (Homo sapiens, UniProt O15379). The note with it: Targeted HDAC/Sirtuin: 3; cited from earlier work.
Where [6] appears, read: differentiated (10 μM RA) Neuro2A.

Read-outs that look alike come from different tables or passages of the source.

Sequence of HDAC3 (O15379 whole entry): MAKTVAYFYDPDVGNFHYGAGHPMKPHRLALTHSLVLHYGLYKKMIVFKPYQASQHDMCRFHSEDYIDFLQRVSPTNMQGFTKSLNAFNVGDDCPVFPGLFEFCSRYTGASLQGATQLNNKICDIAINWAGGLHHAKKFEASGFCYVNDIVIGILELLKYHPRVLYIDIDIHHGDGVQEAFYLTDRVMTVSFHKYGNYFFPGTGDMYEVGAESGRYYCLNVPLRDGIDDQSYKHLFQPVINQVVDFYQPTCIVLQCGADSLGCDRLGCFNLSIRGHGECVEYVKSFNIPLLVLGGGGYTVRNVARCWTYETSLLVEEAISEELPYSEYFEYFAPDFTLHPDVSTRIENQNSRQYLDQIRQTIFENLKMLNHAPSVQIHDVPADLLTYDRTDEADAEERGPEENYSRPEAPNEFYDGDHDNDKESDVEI
Sequence of HDAC3 (Q9Y618 395-489 partner limits assumed): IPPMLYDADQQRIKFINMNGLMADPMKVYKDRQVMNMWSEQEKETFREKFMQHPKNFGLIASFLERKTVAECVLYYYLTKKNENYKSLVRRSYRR
Sequence of HDAC1 (Q13547 whole entry, species assumed): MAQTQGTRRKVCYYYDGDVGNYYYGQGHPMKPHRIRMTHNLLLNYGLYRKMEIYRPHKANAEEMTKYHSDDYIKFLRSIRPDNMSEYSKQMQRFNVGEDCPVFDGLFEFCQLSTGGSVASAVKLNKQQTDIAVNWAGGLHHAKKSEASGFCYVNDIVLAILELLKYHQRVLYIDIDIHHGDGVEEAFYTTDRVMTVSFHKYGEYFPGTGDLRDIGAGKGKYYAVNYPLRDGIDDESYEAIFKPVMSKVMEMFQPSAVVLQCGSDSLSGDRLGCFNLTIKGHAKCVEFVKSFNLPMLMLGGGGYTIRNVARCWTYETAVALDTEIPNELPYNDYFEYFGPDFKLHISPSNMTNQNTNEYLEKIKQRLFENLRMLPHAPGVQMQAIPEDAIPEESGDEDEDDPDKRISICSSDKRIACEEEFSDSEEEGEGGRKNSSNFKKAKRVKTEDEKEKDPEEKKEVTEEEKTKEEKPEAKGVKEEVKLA

Take `O=C(/C=C/c1cccc(S(=O)(=O)Nc2ccccc2)c1)NO` [Belinostat]: the half-inhibitory concentration (IC50) on HDAC6 is 410 nM.
For `O=C(N/N=C/c1ccc(O)c(O)c1)c1cc2ccccc2cc1O` [Dynasore], the uptake of polyplex entry in the data set with Neuro2A cells (setting [6]) and in the data set with Neuro2A cells (native Neuro2A) was “significantly inhibited the uptake of polyplex” in each case.
For the molecule `Nc1ccccc1NC(=O)c1ccc(CNC(=O)OCc2cccnc2)cc1` [Entinostat], the tubulin acetylation result with acetylated α-tubulin was “not”.
Turning to `CCCCC[C@@H](O)[C@H]1C(=O)O[C@H](C)[C@@H](O)/C=C/C=C/C=C/C=C/C=C(\C)[C@@H](O)C[C@H](O)C[C@H](O)C[C@H](O)C[C@H](O)C[C@H](O)C[C@@H]1O` [Filipin III], the “cell death at the concentrations used” value in the data set on Neuro2A cells is “no evidence of cell death”. Also, the uptake of polyplex entry with Neuro2A cells (setting [6]) and in the data set on Neuro2A cells (native Neuro2A) was “did not affect polyplex uptake” throughout.
Take `C/C=C1\NC(=O)[C@H]2CSSCC/C=C/[C@H](CC(=O)N[C@H](C(C)C)C(=O)N2)OC(=O)[C@H](C(C)C)NC1=O` [Romidepsin]: the IC50 on HDAC1 is 80 nM.
For `CC(=O)c1c(O)c(C)c(O)c(Cc2c(O)c3c(c(C(=O)/C=C/c4ccccc4)c2O)OC(C)(C)C=C3)c1O` [Rottlerin], the “cell death at the concentrations used” value with Neuro2A cells is on record as “no evidence of cell death”. The values for the uptake of polyplex result in the data set with Neuro2A cells (setting [6]) and in the data set on Neuro2A cells (native Neuro2A) were “not in differentiated cells” and “reduced the uptake of polyplex significantly”, respectively.
For the molecule `O=C(CCCCCCC(=O)Nc1ccccc1)NO` [SAHA, vorinostat], the tubulin acetylation result in the data set on acetylated α-tubulin was “markedly enhanced tubulin acetylation”. The “cell number on increasing duration of incubation with SAHA” value in the data set with U251MG cells [1] (p53, DOPE/CHEMS, 5 μM SAHA for 48, 72 and 96 h) was “did not further reduce the cell number”. For the same molecule, in the data set on U251MG cells [1], the “cell death / cell number with p53 transfection” value is “resulted in more cell death”. Besides, the “expression of MICA and NKG2D” value in the data set on MICA and NKG2D was “induced up-regulation of MICA and NKG2D”.
`CC(=O)Nc1ccc(C(=O)Nc2ccccc2N)cc1` [Tacedinaline]: the tubulin acetylation result with acetylated α-tubulin is “not”.
As for `CC(/C=C/C(=O)NO)=C\[C@@H](C)C(=O)c1ccc(N(C)C)cc1` [Trichostatin A], the tubulin acetylation result with acetylated α-tubulin was “markedly enhanced tubulin acetylation”. Besides, the enhancement of transfection result in the data set on human fetal MSC cells [2] and in the data set on PC3 cells was “significant enhancement of transfection” throughout.
Turning to `CN1CCc2c(c3ccccc3n2Cc2ccc(C(=O)NO)cc2)C1` [Tubastatin A], in the data set on acetylated α-tubulin (Neuro2a, Tubastatin A 10 μM for 12 hours then washout), the “duration of effect on tubulin acetylation” value is below 24 h. The tubulin acetylation result in the data set on acetylated α-tubulin is “markedly enhanced tubulin acetylation”. For the same molecule, the transfection efficiency result in the data set on U251MG cells [3] was “significant enhancement in transfection efficiency”. In the data set with U251MG cells [1], the “cell death / cell number with p53 transfection” value is on record as “did not result in greater reduction of cell number”. For the same molecule, the “BMP2 expression, fold over the negative control” value with human fetal MSC cells [4] is ~20,000 fold. Further, the enhancement of transfection result in the data set on PC3 cells was “significant enhancement of transfection”.
Take `CCN(CC)CCCC(C)Nc1ccnc2cc(Cl)ccc12` (stereo not shown) [chloroquine]: the “enhancement of transfection, reagent added post-transfection” value in [5] is reported as “did not show cumulative enhancement of transfection”.
For the molecule `CC(=O)O[C@H]1C(=O)[C@@]2(C)[C@H]([C@H](OC(=O)c3ccccc3)[C@]3(O)C[C@H](OC(=O)[C@H](O)[C@@H](NC(=O)c4ccccc4)c4ccccc4)C(C)=C1C3(C)C)[C@]1(OC(C)=O)CO[C@@H]1C[C@@H]2O` [paclitaxel], the tubulin acetylation entry in the data set on acetylated α-tubulin is on record as “markedly enhanced tubulin acetylation”.
As to MC-1293, on HDAC3, the IC50 was 288000 nM.

What is called IC50 is the concentration at which inhibition is half-maximal.
